Measurements reported in patent EP4640686A1, “DEGRADER FOR DEGRADING BRD PROTEIN AND PHARMACEUTICAL COMPOSITION CONTAINING SAME” (Innocure Therapeutics, Inc., priority 2022, dated 2024).
Like-named read-outs stand apart in the source and are kept apart here.

Tests used:
Format in all cases: cell-based
[1] = target: T1, BRD4-NUT (Homo sapiens, UniProt O60885+Q86Y26); assay: BRD4-NUT protein degradation by western blotting in RPMI2650 cells (24 h treatment); conditions: RPM12650, read-out: BRD4-NUT (DC50)
T1 construct: endogenous in cells; host or cells: RPMI2650
Protocol: (§1) The synthesized compounds were prepared with a 10 mM or 50 mM raw material solution dissolved in DMSO [dimethyl sulfoxide], and were diluted sequentially and treated. [RPMI2650] and [SNU2972] were cultivated under specific conditions.
(§2) To evaluate the resolution of PROTAC for BRD4 expressed in cells, cells were dispensed in a concentration of 5 X 10^5 cells/well in a 6-well plate, and the sample was treated for 24 hours. […] Protein expression was normalized based on the expression value of β or GAPDH, and protein expression in each sample was measured as % based on 100% of samples treated with 0.1% DMSO vehicle. Protein expression was quantified using Image J program. Change in protein expression volume by compound treatment (DC50: concentration of compounds where 50% protein expression inhibition is achieved) was calculated using the GraphicPad Prism 8.0 software.

[2] = tested on: RPMI2650; assay: Cancer cell antiproliferative activity / cell viability in RPMI2650 cells (72 h treatment); conditions: Homo sapiens
Protocol: The human breast cancer cell line [MDA-MB-231] was cultured in RPMI medium with the addition of 10% fetal bovine serum, penicillin [100U/ml], and streptomycin [[…]]. The synthesized compounds were prepared with a 10 mM or 50 mM raw material solution dissolved in DMSO [dimethyl sulfoxide], and were diluted sequentially and treated. [RPMI2650] and [SNU2972] were cultivated under specific conditions.
To observe cell growth inhibition, cells were dispensed in a concentration of 5,000 cells/well in a 96-well plate, and samples prepared at various concentrations were treated for 72 hours. The IC50 value (the concentration of the compound achieving 50% cytostaticism) is the average value of the results of three independent measurements.

[3] = target: BRD4 (Homo sapiens, UniProt O60885); assay: BRD4 protein degradation by western blotting in RPMI2650 cells (24 h treatment); design: To evaluate the resolution of PROTAC for BRD4 expressed in cells; endogenous in cells; host or cells: RPMI2650; conditions: RPM12650, read-out: BRD4 (DC50)
Protocol: as §1, §2

[4] = RPMI-2650, RPM12650, read-out: Cell Viatility (IC50)

IC50 ([2]; RPMI-2650, 72 h, RPM12650, read-out: Cell Viatility (IC50)) | SMILES | DC50 [1] | IC50 [2, 4] | DC50 [3]
– | CC[C@@H]1c2nnc(C)n2-c2cnc(Nc3ccc(C(=O)N4CCC(N5CCN(c6ccc7c(=O)n(C8CCC(=O)NC8=O)nc(C)c7c6)CC5)CC4)cc3OC)nc2N1CC1CCCCC1 (stereo partly drawn) [ICT-0001556, 3-(6-(4-(1-(4-(((R)-5-(cyclohexylmethyl)-4-ethyl-1-methyl-4,5-dihydro-[1,2,4]triazolo[4,3-f]pteridine-7-yl)amino)3-methoxybenzoyl)piperidine-4-yl)piperazine-1-yl)4-methyl-1-oxopthalazine-2(1H)-yl)piperidine-2,6-dione] | < 100 nM | > 1000 nM | < 100 nM
– | CC[C@@H]1c2nnc(C)n2-c2cnc(Nc3ccc(C(=O)N4CCN(CC5CCN(c6ccc7c(=O)n(C8CCC(=O)NC8=O)nc(C)c7c6)CC5)CC4)cc3OC)nc2N1CC1CCCCC1 (stereo partly drawn) [ICT-0001516, 3-(6-(4-((4-(4-(((R)-5-(cyclohexylmethyl)-4-ethyl-1-methyl-4,5-dihydro-[1,2,4]triazolo[4,3-f]pteridine-7-yl)amino)3-methoxybenzoyl)piperazine-1-il)methyl)piperidine-1-yl)4-methyl-1-oxopthalazine-2(1H)-yl)piperidine-2,6-dione] | < 100 nM | > 1000 nM | < 100 nM
> 1000 nM | CC[C@@H]1c2nnc(C)n2-c2cnc(Nc3ccc(C(=O)NC4CCN(CCCN5CCN(c6ccc(NC7CCC(=O)NC7=O)cc6F)CC5)CC4)cc3OC)nc2N1CC1CCCCC1 (stereo partly drawn) [ICT-0001572, 4-{[(4R)-5-(cyclohexylmethyl)-4-ethyl-1-methyl-4H,5H-[1,2,4]triazolo[4,3-f]pteridine-7-yl]amino}-N-{1-[3-(4-{4-[(2,6-dioxopiperidin-3-yl)amino]-2-fluorophenyl}piperazine-1-yl)propyl]piperidine-4-yl}-3-methoxybenzamide] | > 1000 nM | – | > 1000 nM
– | CC[C@@H]1c2nnc(C)n2-c2cnc(Nc3ccc(C(=O)N4CCC(CN5CCN(c6ccc7c(=O)n(C8CCC(=O)NC8=O)nc(C)c7c6)CC5)CC4)cc3OC)nc2N1CC1CCCCC1 (stereo partly drawn) [ICT-0001553, 3-(6-(4-(1-(4-(((R)-5-(cyclohexylmethyl)-4-ethyl-1-methyl-4,5-dihydro-[1,2,4]triazolo[4,3-f]pteridine-7-yl)amino)3-methoxybenzoyl)piperidine-4-yl)piperazine-1-yl)4-methyl-1-oxopthalazine-2(1H)-yl)piperidine-2,6-dione] | 100 to 1000 nM | > 1000 nM | < 100 nM
– | CC[C@@H]1c2nnc(C)n2-c2cnc(Nc3ccc(C(=O)NC4CCN(CCCN5CCN(c6ccc7c(=O)n(C8CCC(=O)NC8=O)nc(C)c7c6)CC5)CC4)cc3OC)nc2N1CC1CCCCC1 (stereo partly drawn) [ICT-0001568, 4-{[(4R)-5-(cyclohexylmethyl)-4-ethyl-1-methyl-4H,5H-[1,2,4]triazolo[4,3-f]phteridine-7-yl]amino}-N-[1-(3-{4-[2-(2,6-dioxopiperidin-3-yl)-4-methyl-1-oxo-1,2-dihydroptalazine-6-yl}piperazine-1-il}piperidine-4-yl]piperidine-4-yl]-3-methoxybenzamide] | > 1000 nM | > 1000 nM | < 100 nM
– | CC[C@@H]1c2nnc(C)n2-c2cnc(Nc3ccc(C(=O)NCCOCCOCCOCCNc4cccc5cnn(C6CCC(=O)NC6=O)c(=O)c45)cc3OC)nc2N1CC1CCCCC1 (stereo partly drawn) [ICT-0001549] | > 1000 nM | 100 to 1000 nM | < 100 nM
– | CCC1c2nnc(C)n2-c2cnc(Nc3ccc(C(=O)NC4CCN(CCN5CCN(c6ccc7c(=O)n(C8CCC(=O)NC8=O)nc(C)c7c6)CC5)CC4)cc3OC)nc2N1CC1CCCCC1 [ICT-0001560, 4-{[(4S)-5-(cyclohexylmethyl)-4-ethyl-1-methyl-4H,5H-[1,2,4]triazolo[4,3-f]pteridine-7-yl]amino}-N-[1-(2-{4-[2-(2,6-dioxopiperidine-3-yl)-4-methyl-1-oxo-1,2-dihydroptalazine-6-yl]piperazine-1-yl}ethyl)piperidine-4-yl]-3-methoxybenzamide] | < 100 nM | > 1000 nM | < 100 nM
